Source: patent publication US8153809B2, “Dihydropyridone ureas as P2X7 modulators” (Roche Palo Alto LLC, priority 2008, dated 2012)

Target: T1, P2X7 (UniProt Q99572)
T1 sequence (Q99572 1-595): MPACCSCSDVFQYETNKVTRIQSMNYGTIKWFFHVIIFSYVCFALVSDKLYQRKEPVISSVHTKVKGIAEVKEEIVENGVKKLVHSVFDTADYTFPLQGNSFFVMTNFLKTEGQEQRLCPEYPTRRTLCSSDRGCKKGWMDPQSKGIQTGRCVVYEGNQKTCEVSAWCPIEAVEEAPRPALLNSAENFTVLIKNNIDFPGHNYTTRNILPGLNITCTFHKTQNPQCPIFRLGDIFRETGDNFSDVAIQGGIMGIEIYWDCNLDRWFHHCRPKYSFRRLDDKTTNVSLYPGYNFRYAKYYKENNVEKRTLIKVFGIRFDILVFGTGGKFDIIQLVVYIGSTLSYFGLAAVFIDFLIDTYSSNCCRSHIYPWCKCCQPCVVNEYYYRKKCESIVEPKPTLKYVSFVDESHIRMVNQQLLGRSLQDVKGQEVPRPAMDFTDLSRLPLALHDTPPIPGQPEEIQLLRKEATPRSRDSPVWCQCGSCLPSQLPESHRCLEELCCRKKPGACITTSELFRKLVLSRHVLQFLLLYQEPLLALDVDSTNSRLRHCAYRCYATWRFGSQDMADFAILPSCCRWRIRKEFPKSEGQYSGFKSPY
Test: pIC50 values for P2X7 (Table 1)
Type: cell-based
Experimental: Intracellular Calcium Flux (FLIPR) Assay
Compound and Reagent Preparation
Stock solutions of compounds were prepared from powders as a 10 mM DMSO stock solution. These solutions were stored at RT during the two week period of these experiments to prevent freeze-thaw of the DMSO stocks. The DMSO stocks were added to the appropriate assay buffer at a concentration of 10 μM, and then diluted serially to the final concentrations that were tested. […] The aqueous solutions of compounds as well as ATP (Sigma A7699) and BzATP (Sigma B6396) were prepared fresh for each day of experiment.
1321N1 cells stably expressing the full length human P2X7 gene (1321N1-hP2X7) and HEK293 cells stably expressing the full length rat P2X7 gene (HEK293-rP2X7) were obtained from the Roche Cell Culture Facility. 1321N1-hP2X7 cells were grown in Dulbecco's Modified Eagle's Medium (DMEM) high glucose supplemented with 10% FBS and 250 μg/mL G418. HEK293-rP2X7 cells were grown in DMEM/F-12 supplemented with 10% FBS, 1 mM CaCl2, 2 mM MgCl2, 2 mM L-Glutamine and 500 μg/ml G418. Cells were split such that they never became >70% confluent.
Intracellular Calcium Flux (FLIPR)
On the day prior to the experiment, 1321N1-hP2X7 or HEK293-rP2X7 cells were released into suspension with calcium-free PBS+Versene and washed by centrifugation with calcium-free PBS to remove the Versene.
On the day of the experiment, plates were washed with FLIPR buffer (calcium- and magnesium-free Hank's Balanced Salt Solution (HBSS) supplemented with 10 mM Hepes, 2.5 mM probenecid and 2 mM calcium chloride) using a BIO-TEK 96 channel plate washer and incubated with […] fluo-3 dye at 37° C. for one hr. The dye was then removed by plate washing and the cells were allowed to equilibrate for 20 min at room temperature with antagonist or vehicle (FLIPR buffer). Agonist (100 μM BzATP final concentration for hP2X7; 5 μM BzATP final concentration or rP2X7) was added online with the FLIPR and fluorescence measurements made at 1 sec intervals for 60 sec followed by 3 sec intervals for a further 4 min (5 min total). A final addition of 5 μM ionomycin was made and the maximal BzATP-evoked fluorescence normalized to the maximal ionomycin-evoked fluorescence.

Row | pIC50 | SMILES
1 | 6.987 | COc1cc(NC(=O)N2C=CC(=O)C[C@H]2c2cc(F)cc(F)c2)c(Br)cc1C (stereo in doubt) [Compound 47, 2-(3,5-Difluoro-phenyl)-4-oxo-3,4-dihydro-2H-pyridine-1-carboxylic acid (2-bromo-5-methoxy-4-methyl-phenyl)-amide]
2 | 7.408 | COc1cc(Br)c(NC(=O)N2C=CC(=O)CC2c2ccccc2)cc1OC (stereo not shown) [Compound 1, 4-Oxo-2-phenyl-3,4-dihydro-2H-pyridine-1-carboxylic acid (2-bromo-4,5-dimethoxy-phenyl)-amide]
3 | 6.425 | COc1cc(NC(=O)N2C=CC(=O)CC2c2ccccc2)c(Br)cc1Cl (stereo not shown) [Compound 2, 4-Oxo-2-phenyl-3,4-dihydro-2H-pyridine-1-carboxylic acid (2-bromo-4-chloro-5-methoxy-phenyl)-amide]
4 | 8.055 | COc1cc(Br)c(NC(=O)N2C=CC(=O)C[C@H]2c2ccc(F)cc2)cc1OC [Compound 3, (S)-2-(4-Fluoro-phenyl)-4-oxo-3,4-dihydro-2H-pyridine-1-carboxylic acid (2-bromo-4,5-dimethoxy-phenyl)-amide]
5 | 7.476 | COc1cc(NC(=O)N2C=CC(=O)C[C@H]2c2ccccc2)c(Br)cc1Cl [Compound 4, (S)-4-Oxo-2-phenyl-3,4-dihydro-2H-pyridine-1-carboxylic acid (2-bromo-4-chloro-5-methoxy-phenyl)-amide]
6 | 7.4325 | COc1cc(NC(=O)N2C=CC(=O)C[C@H]2c2ccc(F)cc2)c(Br)cc1Cl [Compound 5, (S)-2-(4-Fluoro-phenyl)-4-oxo-3,4-dihydro-2H-pyridine-1-carboxylic acid (2-bromo-4-chloro-5-methoxy-phenyl)-amide]
7 | 7.5 | COc1cc(NC(=O)N2C=CC(=O)C[C@H]2c2ccc(F)cc2)c(Br)cc1F [Compound 6, (S)-2-(4-Fluoro-phenyl)-4-oxo-3,4-dihydro-2H-pyridine-1-carboxylic acid (2-bromo-4-fluoro-5-methoxy-phenyl)-amide]
8 | 6.73 | COc1cc(NC(=O)N2C=CC(=O)C[C@H]2c2ccc(F)cc2)c(Cl)cc1Cl [Compound 7, (S)-2-(4-Fluoro-phenyl)-4-oxo-3,4-dihydro-2H-pyridine-1-carboxylic acid (2,4-dichloro-5-methoxy-phenyl)-amide]
9 | 6.09 | COc1cc(NC(=O)N2C=CC(=O)C[C@H]2c2ccc(F)cc2)c(Br)cc1C(F)(F)F [Compound 8, (S)-2-(4-Fluoro-phenyl)-4-oxo-3,4-dihydro-2H-pyridine-1-carboxylic acid (2-bromo-5-methoxy-4-trifluoromethyl-phenyl)-amide]
10 | 6.11 | O=C1C=CN(C(=O)Nc2cc(Cl)c(Cl)cc2Br)[C@H](c2ccc(F)cc2)C1 [Compound 9, (S)-2-(4-Fluoro-phenyl)-4-oxo-3,4-dihydro-2H-pyridine-1-carboxylic acid (2-bromo-4,5-dichloro-phenyl)-amide]
11 | 6.5175 | O=C1C=CN(C(=O)Nc2cc(I)c(Cl)cc2Br)[C@H](c2ccc(F)cc2)C1 [Compound 10, (S)-2-(4-Fluoro-phenyl)-4-oxo-3,4-dihydro-2H-pyridine-1-carboxylic acid (2-bromo-4-chloro-5-iodo-phenyl)-amide]
12 | 6.015 | O=C1C=CN(C(=O)Nc2cc(C(F)(F)F)c(Cl)cc2Br)[C@H](c2ccc(F)cc2)C1 [Compound 11, (S)-2-(4-Fluoro-phenyl)-4-oxo-3,4-dihydro-2H-pyridine-1-carboxylic acid (2-bromo-4-chloro-5-trifluoromethyl-phenyl)-amide]
13 | 7.873 | COc1cc(NC(=O)N2C=CC(=O)C[C@H]2c2ccc(F)cc2)c(Br)cc1C [Compound 12, (S)-2-(4-Fluoro-phenyl)-4-oxo-3,4-dihydro-2H-pyridine-1-carboxylic acid (2-bromo-5-methoxy-4-methyl-phenyl)-amide]
14 | 6.66 | COc1cc(NC(=O)N2C=CC(=O)C[C@H]2c2ccc(F)cc2)c(C(C)C)cc1OC [Compound 13, (S)-2-(4-Fluoro-phenyl)-4-oxo-3,4-dihydro-2H-pyridine-1-carboxylic acid (2-isopropyl-4,5-dimethoxy-phenyl)-amide]
15 | 6.726 | CSc1cc(NC(=O)N2C=CC(=O)C[C@H]2c2ccc(F)cc2)c(Br)cc1Cl [Compound 14, (S)-2-(4-Fluoro-phenyl)-4-oxo-3,4-dihydro-2H-pyridine-1-carboxylic acid (2-bromo-4-chloro-5-methylsulfanyl-phenyl)-amide]
16 | 5.94 | CS(=O)(=O)c1cc(NC(=O)N2C=CC(=O)C[C@H]2c2ccc(F)cc2)c(Br)cc1Cl [Compound 15, (S)-2-(4-Fluoro-phenyl)-4-oxo-3,4-dihydro-2H-pyridine-1-carboxylic acid (2-bromo-4-chloro-5-methanesulfonyl-phenyl)-amide]
17 | 6.623 | C[S@@+]([O-])c1cc(NC(=O)N2C=CC(=O)C[C@H]2c2ccc(F)cc2)c(Br)cc1Cl [Compound 16, (S)-2-(4-Fluoro-phenyl)-4-oxo-3,4-dihydro-2H-pyridine-1-carboxylic acid [2-bromo-4-chloro-5-((R)-methanesulfinyl)-phenyl]-amide]
18 | 5.86 | C[S@+]([O-])c1cc(NC(=O)N2C=CC(=O)C[C@H]2c2ccc(F)cc2)c(Br)cc1Cl [Compound 17, (S)-2-(4-Fluoro-phenyl)-4-oxo-3,4-dihydro-2H-pyridine-1-carboxylic acid [2-bromo-4-chloro-5-((S)-methanesulfinyl)-phenyl]-amide]
19 | 6.286 | O=C1C=CN(C(=O)Nc2cc(F)c(Cl)cc2Br)[C@H](c2ccc(F)cc2)C1 [Compound 18, (S)-2-(4-Fluoro-phenyl)-4-oxo-3,4-dihydro-2H-pyridine-1-carboxylic acid (2-bromo-4-chloro-5-fluoro-phenyl)-amide]
20 | 8.56 | COc1cc(Br)c(NC(=O)N2C=CC(=O)C[C@H]2c2cccc(F)c2)cc1OC [Compound 19, (S)-2-(3-Fluoro-phenyl)-4-oxo-3,4-diohydro-2H-pyridine-1-carboxylic acid (2-bromo-4,5-dimethoxy-phenyl)-amide]
21 | 5.995 | COc1cc(NC(=O)N2C=CC(=O)CC2c2cccnc2)c(Br)cc1C (stereo not shown) [Compound 20, 4-Oxo-3,4-dihydro-2H-[2,3′]bipyridinyl-1-carboxylic acid (2-bromo-5-methoxy-4-methyl-phenyl)-amide]
22 | 6.32 | COc1ccc(Br)c(NC(=O)N2C=CC(=O)C[C@H]2c2ccc(F)cc2)n1 [Compound 21, (S)-2-(4-Fluoro-phenyl)-4-oxo-3,4-dihydro-2H-pyridine-1-carboxylic acid (3-bromo-6-methoxy-pyridin-2-yl)-amide]
23 | 7.15 | COC(=O)c1cc(Br)c(NC(=O)N2C=CC(=O)CC2c2ccc(F)cc2)cc1OC (stereo not shown) [Compound 22, 5-Bromo-4-{[2-(4-fluoro-phenyl)-4-oxo-3,4-dihydro-2H-pyridine-1-carbonyl]-amino}-2-methoxy-benzoic acid methyl ester]
24 | 5.245 | Cc1ccc(S(=O)(=O)n2nc(C)c3cc(Br)c(NC(=O)N4C=CC(=O)C[C@H]4c4ccc(F)cc4)cc32)cc1 [Compound 23, (S)-2-(4-Fluoro-phenyl)-4-oxo-3,4-dihydro-2H-pyridine-1-carboxylic acid [5-bromo-3-methyl-1-(toluene-4-sulfonyl)-1H-indazol-6-yl]-amide]
25 | 6.71 | O=C1C=CN(C(=O)Nc2cc(O)c(Cl)cc2Br)[C@H](c2ccc(F)cc2)C1 [Compound 24, (S)-2-(4-Fluoro-phenyl)-4-oxo-3,4-dihydro-2H-pyridine-1-carboxylic acid (2-bromo-4-chloro-5-hydroxy-phenyl)-amide]
